In brackets after ≈: the same amount, converted by molar mass.
Key:
Propionibacterium acnes [1] = settings: literature values; cited from earlier work
acne patients = experiment: Clinical test on acne patients, oral administration; type: in vivo, human
Method: The macelignan isolated and purified in Example <1-1> was clinically tested for acne treatment. • 30 men and women in their mid-30s, who suffer from acne, were selected as test subjects. The macelignan was administered to the test subjects at 600 mg two times a day for 4 weeks.

acne-causing bacteria = experiment: Thermal stability: antibacterial activity by well diffusion assay after thermal treatment; type: cell-based; settings: for Diameter of clear zone on the plate containing macelignan: 0.1% in dimethylsulfoxide
Method: The macelignan compound prepared in Example <1-1> was dissolved in dimethylsulfoxide to a concentration of 0.1%. The sample was thermally treated for 30 minutes at different temperatures of 60° C., 70° C., 80° C., 90° C., 100° C., and 121° C. and measured for antibacterial activity by the well diffusion assay.

Propionibacterium acnes [2] = experiment: Minimum inhibitory concentration (MIC), broth serial dilution; type: cell-based; settings: Cutibacterium acnes; BHI broth, 37° C., at least 24 hours; read-out: Minimum inhibitory concentration against Propionibacterium acnes
Method: (§1) The macelignan compound prepared in Example <1-1> was dissolved in 0.5% methanol, and 1 ml of BHI (Brain Heart Infusion) broth was placed into each of test tubes. 1 ml of 2% macelignan solution was placed only into the first test tube and serially diluted 2-fold. Then, 100 μl of Propionibacterium acnes were added at 2×10^5 CFU/ml to each test tube and cultured at 37° C. for at least 24 hours. […] Using the same method, the minimum inhibitory concentrations against Staphylococcus aureus and Staphylococcus epidermis were also measured and the results are shown in Table 2.

Staphylococcus epidermis = experiment: as above; type: cell-based; settings: same method, read-out: Minimum inhibitory concentration against Staphylococcus epidermis
Method: as §1

Staphylococcus aureus = experiment: as above; type: cell-based; settings: same method, read-out: Minimum inhibitory concentration against Staphylococcus aureus
Method: as §1

Propionibacterium acnes [3] = experiment: Growth inhibition of Propionibacterium acnes by viable cell counting; type: cell-based; settings: 37° C.
Method: The macelignan compound prepared in Example <1-1> was dissolved in dimethylsulfoxide to concentrations of 0.002%, 0.001% and 0.0005%, respectively. 100 μl of Propionibacterium acnes diluted to 2×10^5 CFU/ml was added to test tubes containing the macelignan solutions and allowed to react at 37° C. for 2 hr, 4 hr, 8 hr, 12 hr, 16 hr, 20 hr, and 24 hr. Each sample was serially diluted 10-fold and subjected to the pour plate method. The plates were cultured in an incubator at 37° C. and measured for viable cell colonies of Propionibacterium acnes.

[4] = oral 600 mg two times a day, 4 weeks

## benzalkonium chloride
Propionibacterium acnes [1]
  MIC against Propionibacterium acnes: 200˜300 μg/ml

## COc1cc(C[C@H](C)[C@H](C)Cc2ccc3c(c2)OCO3)ccc1O [macelignan]
Acne patients; [4]
  Comedos, mean number after 4 weeks of administration: 7.94
  Nodules, mean number after 4 weeks of administration: 0.24
  Papules, mean number after 4 weeks of administration: 5.69
  Pustules, mean number after 4 weeks of administration: 2.30
Acne patients; oral 600 mg two times a day, 4 weeks, p-value<0.05
  number of lesions after 4 weeks compared to before administration: remarkably reduced
Acne patients; oral, before administration
  Comedos, mean number before administration: 18.92
  Nodules, mean number before administration: 0.74
  Papules, mean number before administration: 14.47
  Pustules, mean number before administration: 5.92
acne-causing bacteria; treated 30 minutes at 60° C.
  Diameter of clear zone on the plate containing macelignan: 17 mm
acne-causing bacteria; treated 30 minutes at 70° C.
  Diameter of clear zone on the plate containing macelignan: 16 mm
acne-causing bacteria; treated 30 minutes at 80° C.
  Diameter of clear zone on the plate containing macelignan: 17 mm
acne-causing bacteria; treated 30 minutes at 90° C.
  Diameter of clear zone on the plate containing macelignan: 17 mm
acne-causing bacteria; treated 30 minutes at 100° C.
  Diameter of clear zone on the plate containing macelignan: 18 mm
acne-causing bacteria; treated 30 minutes at 121° C.
  Diameter of clear zone on the plate containing macelignan: 17 mm
acne-causing bacteria; thermal treatment at 60° C.-121° C.
  thermal stability (change of antibacterial activity after thermal treatment): little or no reduction in antibacterial activity
Propionibacterium acnes [2]
  MIC: 2 µg/mL (≈ 6.09 µM)
Staphylococcus epidermis
  MIC: 64 µg/mL (≈ 195 µM)
Staphylococcus aureus
  MIC: 125 µg/mL (≈ 381 µM)
Propionibacterium acnes [3]; macelignan 0.001% (10 μg/ml)
  time within which the bacteria were almost dead: ≤ 8 h
Propionibacterium acnes [3]; macelignan 0.002% (20 μg/ml)
  time within which the bacteria were almost dead: ≤ 2 h

## CC1=CCC(O)(C(C)C)CC1 (stereo not drawn) [terpinen-4-ol]
Propionibacterium acnes [1]
  MIC against Propionibacterium acnes: 300 to 500 µg/mL

## O=C(OOC(=O)c1ccccc1)c1ccccc1 [benzoyl peroxide]
Propionibacterium acnes [1]
  MIC against Propionibacterium acnes: 500 to 1000 µg/mL
